Results on 21 compounds are retold here after patent US5530018A, “Meso-azanoradamantanes” (G. D. Searle & Co., priority 1994, dated 1996).

Assay [1] concerns guinea pig stomach strips. The conditions noted are these: in vitro; cited from earlier work.
For the next assay, the system named is antroduodenal motility. The conditions noted are these: dogs, cited from earlier work.
The next assay has as its system gastric emptying. The conditions noted are these: in vivo; cited from earlier work.
For assay [2], the target named is T1, 5-HT4 receptor (Rattus norvegicus, UniProt Q62758).
T1 construct: One 2 cm segment of intrathoracic esophagus proximal to the diaphragm was removed from male rats; from tissue; host or cells: rat intrathoracic oesophagus, inner tunica muscularis mucosae
As to the kind of experiment: cell-based. The settings on record: carbachol (3 μM)-contracted rat TMM, 37° C., tissues from 5 rats; read-out: 5-HT4 Agonism (Rat TMM) In Vitro Assay: EC50 values. Here is the method: (§1) 5-HT4 agonist activity was determined in the in vitro rat tunica muscularis mucosae (TMM) assay described herein. (Baxter et al., Naunyn Schmied Arch. Pharmacol, 1991, 343, 439). […] One with skill in the art could determine the activity of the compounds of the present invention using the methodology of these assays, described herein, without undue experimentation.
Schmied. Arch. Pharmacol. 343, 439 (1991)]. Agonist activity was determined utilizing relaxation of carbachol-contracted rat tunica muscularis mucosae (TMM). One 2 cm segment of intrathoracic esophagus proximal to the diaphragm was removed from male rats, weighing approximately 300 gm, and the outer muscle layers removed. The inner tunica muscularis mucosa was mounted under 0.2-0.3 g of tension in a tissue bath containing oxygenated Tyrode's solution at 37° C. […] Following a 30 minute equilibrium period, tissues were isometrically contracted with carbachol (3 μM) to obtain a tonic contraction. A stable plateau was obtained within 20 minutes when test compound was added cumulatively to relax the muscle strip. EC50 values were obtained for each agonist in tissues from 5 rats.

The test system of another assay is 5-HT3. The conditions noted are these: in vivo; cited from earlier work.
Assay [3] relates to 5-HT4 receptor. The conditions noted are these: mouse embryonic colliculi neurons; cited from earlier work.
Another assay has as its system myenteric neurons. The settings on record: cited from earlier work.
Another assay has as its target T2, 5-HT3 receptor (Rattus norvegicus, UniProt P35563).
T2 construct: Brain cortices were obtained from male rats and a membrane fraction prepared by standard techniques; from tissue; host or cells: rat brain cortex membranes
T2 sequence (P35563 24-483): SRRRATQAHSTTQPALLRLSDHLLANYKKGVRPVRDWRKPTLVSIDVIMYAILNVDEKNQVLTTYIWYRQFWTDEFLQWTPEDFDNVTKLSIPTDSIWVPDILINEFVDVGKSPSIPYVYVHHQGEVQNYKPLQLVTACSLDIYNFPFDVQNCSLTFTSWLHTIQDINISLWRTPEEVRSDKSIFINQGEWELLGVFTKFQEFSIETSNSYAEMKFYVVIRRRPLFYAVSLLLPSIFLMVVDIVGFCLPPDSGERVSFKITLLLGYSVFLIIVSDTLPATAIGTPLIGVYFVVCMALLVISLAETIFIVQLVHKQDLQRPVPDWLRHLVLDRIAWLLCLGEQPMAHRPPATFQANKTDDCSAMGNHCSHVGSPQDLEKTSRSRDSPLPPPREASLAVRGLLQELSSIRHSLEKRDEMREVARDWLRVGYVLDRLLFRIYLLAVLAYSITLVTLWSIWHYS
As to the kind of experiment: 5-HT3 radioligand receptor binding, [3H]-GR65630, rat brain cortex membranes. Here is the method: as §1
Procedure: GR65630 binds to the 5-HT3 receptor. Brain cortices were obtained from male rats and a membrane fraction prepared by standard techniques. 0.04 mg of membrane prep was incubated with 0.2 nM [^3 H]-GR65630 for 66 minutes at 22° C. […] Membranes were filtered and washed 3 times and the filters were counted to determine [^3 H]-GR65630 specifically bound. [Kilpatrick GJ, Jones BJ and Tyers MB, Identification and Distribution of 5-HT3 Receptors in Rat Brain Using Radioligand Binding Assay, Nature 330, 746-748 (1987)].

Assay [4] concerns GI transit. The conditions noted are these: cited from earlier work.
In the next assay the test system is 5-HT4 receptors. The settings on record: cited from earlier work.
Assay [5] relates to GI transit. The conditions noted are these: mice; cited from earlier work.

Entries after “also recorded” stand apart in the source; their conditions may differ. Structures can show the parent of a compound that is named as a salt.

T1 sequence (Q62758 whole entry): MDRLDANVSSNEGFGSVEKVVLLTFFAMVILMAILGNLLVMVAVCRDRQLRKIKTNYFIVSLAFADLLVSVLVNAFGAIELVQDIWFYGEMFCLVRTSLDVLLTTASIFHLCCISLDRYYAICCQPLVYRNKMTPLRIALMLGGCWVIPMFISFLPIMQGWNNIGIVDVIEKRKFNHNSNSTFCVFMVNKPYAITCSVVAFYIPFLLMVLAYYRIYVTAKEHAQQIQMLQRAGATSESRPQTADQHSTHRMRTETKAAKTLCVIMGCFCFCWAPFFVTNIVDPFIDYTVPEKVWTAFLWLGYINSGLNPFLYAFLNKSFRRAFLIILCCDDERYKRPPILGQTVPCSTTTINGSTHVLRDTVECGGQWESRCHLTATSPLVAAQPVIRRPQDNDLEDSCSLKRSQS

In the case of `CN1[C@@H]2CC[C@H]1C[C@@H](OC(=O)c1c[nH]c3ccccc13)C2` [ICS 205,930], the “guinea pig stomach strip contraction” value in [1] is “enhanced guinea pig stomach muscle strip contraction in vitro”. In addition, in the assay with antroduodenal motility (coadministered with cisapride), the “effect on responses to cisapride” value is listed as “did not affect the responses to cisapride when the agents were coadministered”. Further, the gastric emptying entry in the assay with gastric emptying is “increases in gastric emptying rates in vivo; also recorded: enhanced gastric emptying”.

By EC50 is commonly meant the concentration that produces a half-maximal response. As to `COc1cc(N)c(Cl)cc1C(=O)NCC1C2CC3CC1CN3C2` (stereo not shown) [Example 9, 4-Amino-5-chloro-N-(hexahydro,2,6-methano-1H-pyrrolizin-8-ylmethyl)-2-methoxybenzamide, monobydrochloride], the concentration for a half-maximal effect (EC50) at 5-HT4 receptor [2] worked out at 397 nM.

As to `CCN(CC)CCNC(=O)c1cc(Cl)c(N)cc1OC` [metoclopramide], the “guinea pig stomach strip contraction” value in assay [1] is reported as “enhanced electrical-field stimulated contractions in guinea pig stomach strips; also recorded: enhanced guinea pig stomach muscle strip contraction in vitro”. Also, in the assay with 5-HT3, the “5-HT3 mediated Bezold Jarisch reflex” value is listed as “blocks the 5-HT3 mediated Bezold Jarisch reflex”. The gastric emptying entry in the assay on gastric emptying is reported as “increases in gastric emptying rates in vivo”.

In the case of `COc1cc(NC(C)=O)c(Cl)cc1C(=O)N[C@@H]1[C@@H]2C[C@@H]3C[C@H]1CN3C2` [Example 2, Anti-4-(acetylamino)-5-chloro-N-(hexahydro-2,6-methano-1H-pyrrolizin-8-yl)-2-methoxybenzamide], the 50% effective concentration (EC50) on 5-HT4 receptor [2] is greater than 10000 nM.

Consider `COc1cc(N)c(Cl)cc1C(=O)NC1CCN(CCCOc2ccc(F)cc2)CC1OC` (stereo not shown) [Cisapride], for which the “prokinetic activity correlated with agonist activity at 5-HT4 receptor” value in the assay on 5-HT4 receptor [3] is on record as “correlate with agonist activity at a novel 5-HT4 receptor subtype”. In addition, the EC50 on 5-HT4 receptor [2] turned out to be 55 nM. Moreover, the antroduodenal motility result with antroduodenal motility was “enhanced antroduodenal motility in dogs”. In addition, in the assay on myenteric neurons, the “depolarization of myenteric neurons” value was “depolarize myenteric neurons”.

Turning to `COc1cc(NC(C)=O)c(Cl)cc1C(=O)NCC1C2CC3CC1CN3C2` (stereo not shown) [Example 7, 4-(Acetylamino)-5-chloro-N-(hexahydro-2,6-methano-1H-pyrrolizin-8-ylmethyl)-2-methoxybenzamide, hydrochloride], at 5-HT4 receptor [2], the EC50 is no less than 10000 nM.

Turning to `COc1cc(NC(C)=O)c(Cl)cc1C(=O)N[C@H]1[C@@H]2C[C@@H]3C[C@H]1CN3C2` [Example 1, Syn-4,(acetylamino)-5-chloro-N-(hexahydro-2,6-methano-1H-pyrrolizin8-yl)-2-methoxybenzamide], at 5-HT4 receptor [2], the EC50 came out at 3340 nM.

For the compound `Cc1nc[nH]c1CCC(=O)c1cn(C)c2ccccc12` [GR65630], the Bmax at 5-HT3 receptor ([3H]-GR65630, rat brain cortex membranes) stood at 154 fmol/mg protein. The “% Specific Binding” value at 5-HT3 receptor ([3H]-GR65630, non-specific binding in presence of 1 uM ICS 205,930) is 70%.

In the case of `COc1cc(N)c(Cl)cc1C(=O)OC1C2CC3CC1CN3C2` (stereo not shown) [Example 13, (Hexahydro-2,6-methano-1H-pyrrolizin-8-yl) 4-amino-5-chloro-2-methoxybenzoate], at 5-HT4 receptor [2], the EC50 amounted to 216 nM.

What is called Ki is the equilibrium dissociation constant of an inhibitor or competing ligand from its target. Read a high Ki as lower affinity. As to `COc1cc(N)c(Cl)cc1C(=O)N[C@@H]1[C@@H]2C[C@@H]3C[C@H]1CN3C2` [Example 6, Anti-4-amino-5-chloro-N-(hexahydro-2,6-methano-1H pyrrolizin-8-yl)-2-methoxybenzamide, monohydrochloride], the EC50 on 5-HT4 receptor [2] came to 382 nM. The compound further gave a Ki on 5-HT3 receptor of 3.8 nM.

Take `Cc1nccn1CC1CCc2c(c3ccccc3n2C)C1=O` (stereo not shown) [GR38032]: in the assay with GI transit [4] (man (S. Gore et al.)), the “GI transit / colonic transit” value is “not only failed to accelerate GI transit, but in fact slowed colonic transit in man”. For the same compound, in the assay on GI transit [4] (man (Talley et al.)), the “small intestinal transit times or mouth-to-cecum transit times” value is “did not alter small intestinal transit times or mouth-to-cecumtransit times”. The gastric emptying result in the assay with gastric emptying is “enhanced gastric emptying”.

For `COc1cc(N)c(Cl)cc1C(=O)NC[C@H]1[C@@H]2C[C@@H]3C[C@H]1CN3C2` [Example 14, Syn-4-amino-5-chloro-N-(hexahydro-2,6-methano-1H-pyrrolizin-8-ylmethyl)-2-methoxybenzamide, monohydrochloride], the EC50 at 5-HT4 receptor [2] came to 421 nM. This compound also yielded an inhibitory constant (Ki) at 5-HT3 receptor of 1.1 nM.

Turning to `COc1cc(N)c(Cl)cc1C(=O)NC[C@@H]1[C@@H]2C[C@@H]3C[C@H]1CN3C2` [Example 11, Anti-4-amino-5-chloro-N-(hexahydro-2,6-methano-1H-pyrrolizin-8-ylmethyl)-2-methoxybenzamide, monohydrochloride], the half-maximal effective concentration (EC50) at 5-HT4 receptor [2] is 660 nM.

As for `COc1cc(N)c(Cl)cc1C(=O)N[C@@H]1[C@@H]2C[C@@H]3C[C@H]1CN3C2` [Example 5, Anti-4-amino-5-chloro-N-(hexahydro-2,6-methano-1H-pyrrolizin-8-yl)-2-methoxybenzamide], at 5-HT4 receptor [2], the EC50 stood at 705 nM.

For `NCCc1c[nH]c2ccc(O)cc12` [Serotonin, 5-hydroxytryptamine], the “peristaltic reflex mediated through 5-HT4 receptors” value with 5-HT4 receptors is on record as “mediated through agonism at 5-HT4 receptors”.

In the case of `COc1cc(N)c(Cl)cc1C(=O)N[C@H]1[C@@H]2C[C@@H]3C[C@H]1CN3C2` [Example 4, Syn-4-amino-5-chloro-N-(hexahydro-2,6-methano-1H-pyrrolizin-8-yl)-2-methoxybenzamide, hydrochloride], on 5-HT4 receptor [2], the EC50 stood at 712 nM. At 5-HT3 receptor, this compound gave an inhibitory constant (Ki) of 22 nM.

On to `COc1cc(N)c(Cl)cc1C(=O)NC1CN2CCC1CC2` (stereo not shown) [zacopride], for which the gastric emptying entry in the assay with gastric emptying is given as “enhanced gastric emptying”.

For `COc1cc(N)c(Cl)cc1C(=O)NC1CCN2CCCC1C2` (stereo not shown) [BRL-24924], the “prokinetic activity correlated with agonist activity at 5-HT4 receptor” value in the assay with 5-HT4 receptor [3] is “correlate with agonist activity at a novel 5-HT4 receptor subtype”. Moreover, the “depolarization of myenteric neurons” value in the assay with myenteric neurons is “depolarize myenteric neurons”. In addition, the “peristaltic reflex mediated through 5-HT4 receptors” value with 5-HT4 receptors is reported as “mediated through agonism at 5-HT4 receptors”.

In the case of `CN1[C@@H]2CC[C@H]1C[C@@H](OC(=O)c1cc(Cl)cc(Cl)c1)C2` [MDL 72222], the “guinea pig stomach strip contraction” value in assay [1] is “enhanced guinea pig stomach muscle strip contraction in vitro”. Moreover, in the assay with gastric emptying, the gastric emptying entry is on record as “increases in gastric emptying rates in vivo”.

Turning to `COc1cc(N)c(Cl)cc1C(=O)N[C@H]1[C@@H]2C[C@@H]3C[C@H]1CN3C2` [Example 3, Syn-4-amino-5-chloro-N-(hexahydro,2,6-methano-1H-pyrrolizin-8-yl)-2-methoxybenzamide], the EC50 on 5-HT4 receptor [2] came to 2230 nM.

On to `Cc1nccn1CC1CCc2c(c3ccccc3n2C)C1=O.Cl.O.O` (stereo not shown) [SN-307], for which the “transit of a charcoal meal” value in the assay on GI transit [5] is given as “enhanced transit of a charcoal meal in mice”.
